Test results as given in patent US7776828B2, “Radiation therapy methods” (University of Southern California, priority 1998, dated 2010).
“Also recorded” adds a separate entry of the source. Non-standard residues stand in square brackets, D forms with d. No end group written: not given here. Phe(4-NH2) = Nc1ccc(C[C@H](N)C(=O)O)cc1

Key:
AT2 receptor = conditions: cited from earlier work
C57B1/6 mice = assay: Survival and white blood cell number of mice receiving bone marrow transplantation after lethal irradiation; assay type: in vivo
Protocol: Donor C57B1/6 mice (female, 6-8 weeks old) were irradiated with 600 cGy total body irradiation. Starting on the day of irradiation, the mice received either saline (0.1 ml) or 20 μg/ml angiotensin II (0.1 ml, 100 μg/kg) subcutaneously for fourteen days. At the end of this period, the bone marrow was harvested from the femur by flushing and the number of viable nucleated cells determined by counting under a light microscope on a hemacytometer in the presence of trypan blue.
These donor bone marrow cells were then injected intravenously into recipient mice (female C57B1/6, 6-8 weeks old) that had been lethally irradiated (900 cGy total body irradiation) at two concentrations: 1×10^6 or 1×10^5 cells per mouse. After injection, the recipient mice received either saline or 100 μg/kg AII subcutaneously until death or termination. The study design in its entirety is as follows:
The survival of the mice and the number of circulating white blood cells were measured as a function of time post-bone marrow transplantation.

Female C57B1/6 mice [1] = assay: Blood cell recovery after irradiation (white blood cells, megakaryocytes, monocytes, neutrophils, lymphocytes); assay type: in vivo
Protocol: (§1) Female C57B1/6 mice (Jackson Labs, Bar Harbor, Me.) were irradiated with 600 cGy total body irradiation. Subcutaneous injection with either AII (10 μg/kg/day or 100 μg/kg/day) or saline (placebo) was initiated two days before (−day 2), on the day of (day 0) or 2 days after (+day 2) irradiation and continued until the animals succumbed to the irradiation or were necropsied. At various times after irradiation, the mice were anaesthetized with Metofane (Pittman-Moore Animal Health, NZ) and bled via the retro-orbital sinus. Red blood cells were lysed with 0.3% acetic acid and the number of white blood cells was determined by counting with a hemacytometer. […] Furthermore, AII administration at all time periods tested increased the number of circulating white blood cells (FIGS. 4-6).

[2] = test system: cultured cells that are involved in wound repair; conditions: cited from earlier work
Female C57B1/6 mice [3] = assay: Post-irradiation mouse mortality/survival (600 cGy total body irradiation); assay type: in vivo
Protocol: as §1

rabbit corneal eye = rabbit corneal eye model; cited from earlier work
wound tissue = conditions: application to wound tissue; cited from earlier work
[4] = test system: chick chorioallantoic membrane; conditions: chick chorioallantoic membrane model; cited from earlier work
[5] = Effectiveness testing of AII fragments (test not specified); conditions: test not described
[6] = recipients 900 cGy, AII 100 μg/kg s.c. to donor and/or recipient

## Asp-Arg-Val-Tyr-Ile-His-Pro-Phe (DRVYIHPF) [AII]
AT2 receptor; selectivity AT2 over AT1
  affinity for AT2 than AT1: 100 times
C57B1/6 mice; [6]
  number of circulating white blood cells post-bone marrow transplantation: increased
  survival post-bone marrow transplantation: increased
C57B1/6 mice; treatment of both the donor bone marrow cells and the recipient mice with AII
  benefit (survival and white blood cell number): greatest benefit
Female C57B1/6 mice [1]; after 600 cGy irradiation, FIGS. 7-9
  number of megakaryocytes: increased
Female C57B1/6 mice [1]; after 600 cGy irradiation, FIGS. 10-12
  number of monocytes: increased
Female C57B1/6 mice [1]; after 600 cGy irradiation, FIGS. 13-15
  number of neutrophils: increased
Female C57B1/6 mice [1]; after 600 cGy irradiation, FIGS. 16-18
  number of lymphocytes: increased
Female C57B1/6 mice [1]; all time periods tested (-day 2, day 0, +day 2), 600 cGy, FIGS. 4-6
  number of circulating white blood cells: increased
[2]
  mitogenesis and chemotaxis: increases
  release of growth factors and extracellular matrices: increases
Female C57B1/6 mice [3]; AII 10 or 100 μg/kg/day s.c. starting on the day of irradiation (day 0), FIG. 2
  survival after irradiation: substantially increased survival
Female C57B1/6 mice [3]; AII 10 or 100 μg/kg/day s.c. starting two days after irradiation (+day 2), FIG. 3
  survival after irradiation: substantially increased survival
Female C57B1/6 mice [3]; AII 10 or 100 μg/kg/day s.c. starting two days prior to irradiation (-day 2), FIG. 1
  protection against mortality resulting from irradiation: did not protect against mortality
Rabbit corneal eye
  angiogenic activity: angiogenic
Wound tissue
  rate of wound healing: significantly increases
[4]
  angiogenic activity: angiogenic

## Asp-Arg-Val-Tyr-Ile-Xaa-Pro-Phe (DRVYI[Phe(4-NH2)]PF) [p-aminophenylalanine6-AII, reference compound]
AT2 receptor; compared with AT2 antagonists in the experimental models tested
  binding characteristics: comparable to AT2 antagonists

## His-Pro-Phe (HPF) [AII(6-8)]
[5]
  effectiveness: not to be effective

## Tyr-Ile-His-Pro-Phe (YIHPF) [AII(4-8)]
[5]
  effectiveness: not to be effective; also recorded: ineffective
